In this assay the target is purified human MMP-12 enzyme (Homo sapiens, UniProt P39900). In words: MMP-12 FRET assay. The assay is classed as biochemical. The following applies: substrate 20 μM, room temperature. Put shortly:
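Initial fluorescence rate (325/395 nm) of cleavage of MCA-Pro-Leu-Gly-Leu-Dpa(DNP)-Ala-Arg, 20 μM final, was followed for 30 min at room temperature after a 30 min enzyme–compound preincubation. Buffer: 50 mM HEPES pH 7.4, 100 mM NaCl, 5 mM CaCl2, 0.005% Brij-35, with 10% final DMSO. IC50 came from a Hill-type fit of rate versus inhibitor concentration.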
Chain of purified human MMP-12 enzyme (P39900 106-470): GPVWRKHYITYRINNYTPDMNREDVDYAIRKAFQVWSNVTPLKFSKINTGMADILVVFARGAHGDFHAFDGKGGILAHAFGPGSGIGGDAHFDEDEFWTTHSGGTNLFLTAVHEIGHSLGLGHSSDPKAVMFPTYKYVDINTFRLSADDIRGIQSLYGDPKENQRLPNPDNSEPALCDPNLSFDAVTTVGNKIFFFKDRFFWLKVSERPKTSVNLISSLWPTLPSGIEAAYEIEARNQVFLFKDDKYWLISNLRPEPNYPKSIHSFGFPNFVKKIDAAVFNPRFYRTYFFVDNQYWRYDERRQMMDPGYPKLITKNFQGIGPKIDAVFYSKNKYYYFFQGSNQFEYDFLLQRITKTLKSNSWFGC
As to `CC(C)[C@H](NS(=O)(=O)c1ccc2c(c1)sc1ccc(-c3ccc(-c4ccc(-c5ccc(Cl)nc5)nc4)nc3)cc12)C(=O)O` [Compound 54, (S)-2-[8-(6″-Chloro-[2,3′;6′,3″]terpyridin-5-yl)-dibenzothiophene-3-sulfonylamino]-3-methyl-butanoic acid], the IC50 (commonly the concentration needed to halve the response being measured) turned out to be 483 nM.

As to `COc1ccc(-c2ccc3c(c2)oc2ccc(S(=O)(=O)N[C@@H](C(=O)O)C(C)C)cc23)cn1` [Compound 102, (R)-2-(7-(6-methoxypyridin-3-yl)dibenzo[b,d]furan-2-sulfonamido)-3-methylbutanoic acid], the IC50 is < 1.5 nM. The compound `CC(C)(C)c1nc(-c2ccc3oc4cc(S(=O)(=O)N[C@H](Cc5c[nH]c6ccccc56)C(=O)O)ccc4c3c2)no1` [Compound 256, (R)-2-(8-(5-tert-butyl-1,2,4-oxadiazol-3-yl)dibenzo[b,d]furan-3-sulfonamido)-3-(1H-indol-3-yl)propanoic acid] came in with an IC50 of 129 nM. Under `CC(C)CCn1cc(-c2ccc3sc4cc(S(=O)(=O)N[C@H](C(=O)O)C(C)C)ccc4c3c2)cn1` [Compound 43, (S)-2-(8-(1-isopentyl-1H-pyrazol-4-yl)dibenzo[b,d]thiophene-3-sulfonamido)-3-methylbutanoic acid] stands 88 nM; under `CC(C)[C@H](NS(=O)(=O)c1ccc2c(c1)sc1ccc(-c3cn[nH]c3)cc12)C(=O)O` [Compound 45, (S)-2-(8-(1H-pyrazol-4-yl)dibenzo[b,d]thiophene-3-sulfonamido)-3-methylbutanoic acid], 5.5 nM; under `CC(C)[C@H](NS(=O)(=O)c1ccc2c(c1)oc1ccc(-c3nn[nH]n3)cc12)C(=O)O` [Compound 130, (S)-2-(8-(2H-tetrazol-5-yl)dibenzo[b,d]furan-3-sulfonamido)-3-methylbutanoic acid], 1900 nM. Under `CC(C)(C)c1nc(-c2ccc3c(c2)oc2ccc(S(=O)(=O)N[C@H](Cc4ccccc4)C(=O)O)cc23)no1` [Compound 275, (R)-2-(7-(5-tert-butyl-1,2,4-oxadiazol-3-yl)dibenzo[b,d]furan-2-sulfonamido)-3-phenylpropanoic acid] stands 4.1 nM; under `CC(C)[C@H](NS(=O)(=O)c1ccc2c(c1)oc1ccc(C#CCN(C)C)cc12)C(=O)O` [Compound 2, (S)-2-(8-(3-(dimethylamino)prop-1-ynyl)dibenzo[b,d]furan-3-sulfonamido)-3-methylbutanoic acid], 2.4 nM; under `CC(C)[C@H](NS(=O)(=O)c1ccc2c(c1)oc1ccc(-c3ccc(C(F)(F)F)cc3)cc12)C(=O)O` [Compound 311, (S)-3-methyl-2-(8-(4-(trifluoromethyl)phenyl)dibenzo[b,d]furan-3-sulfonamido)butanoic acid], 2 nM. With `CC(C)[C@@H](NS(=O)(=O)c1ccc2oc3cc(-c4ccc[nH]4)ccc3c2c1)C(=O)O` [Compound 116, (R)-2-(7-(1H-pyrrol-2-yl)dibenzo[b,d]furan-2-sulfonamido)-3-methylbutanoic acid], half-maximal inhibition (IC50) was put at 3.1 nM. Next, `CC(C)[C@H](NS(=O)(=O)c1ccc2c(c1)oc1ccc(-c3ccccc3)cc12)C(=O)O` [Compound 309, (S)-3-methyl-2-(8-phenyldibenzo[b,d]furan-3-sulfonamido)butanoic acid]: < 1.5 nM; `CCN(CC)C(=N)c1ccc2oc3cc(S(=O)(=O)N[C@H](C(=O)O)C(C)C)ccc3c2c1` [Compound 106, (S)-2-(8-(N,N-diethylcarbamimidoyl)dibenzo[b,d]furan-3-sulfonamido)-3-methylbutanoic acid]: 400 nM; `CCN(C#Cc1ccc2oc3cc(S(=O)(=O)N[C@H](C(=O)O)C(C)C)ccc3c2c1)CC` [Compound 39, (S)-2-(8-((diethylamino)ethynyl)dibenzo[b,d]furan-3-sulfonamido)-3-methylbutanoic acid]: 39 nM. Next, `CC(C)[C@H](NS(=O)(=O)c1ccc2c(c1)oc1ccc(-c3ccco3)cc12)C(=O)O` [Compound 37, (S)-2-(8-(furan-2-yl)dibenzo[b,d]furan-3-sulfonamido)-3-methylbutanoic acid]: 1.9 nM. Next, `CC(C)[C@H](NS(=O)(=O)c1ccc2c(c1)oc1ccc(C3=NCCS3)cc12)C(=O)O` [Compound 107, (S)-2-(8-(4,5-dihydrothiazol-2-yl)dibenzo[b,d]furan-3-sulfonamido)-3-methylbutanoic acid]: 21 nM; `CC(C)[C@@H](NS(=O)(=O)c1ccc2oc3cc(-c4cnn(CCN5CCOCC5)c4)ccc3c2c1)C(=O)O` [Compound 172, (R)-3-methyl-2-(7-(1-(2-morpholinoethyl)-1H-pyrazol-4-yl)dibenzo[b,d]furan-2-sulfonamido)butanoic acid]: 19 nM.

On to `CC(C)[C@H](NS(=O)(=O)c1ccc2c(c1)oc1cc(C(=N)NO)ccc12)C(=O)O` [Compound 186, (S)-2-(7-(N-hydroxycarbamimidoyl)dibenzo[b,d]furan-3-sulfonamido)-3-methylbutanoic acid], for which the IC50 was 1.9 nM. Next, `CC(C)[C@H](NS(=O)(=O)c1ccc2c(c1)oc1ccc(-c3nc4ccccc4s3)cc12)C(=O)O` [Compound 151, (S)-2-(8-(benzo[d]thiazol-2-yl)dibenzo[b,d]furan-3-sulfonamido)-3-methylbutanoic acid]: < 1.5 nM. Under `CC(C)[C@@H](NS(=O)(=O)c1ccc2oc3cc(-c4nccs4)ccc3c2c1)C(=O)O` [Compound 291, (R)-3-methyl-2-(7-(thiazol-2-yl)dibenzo[b,d]furan-2-sulfonamido)butanoic acid] stands 5.2 nM. In turn, `CC(C)[C@H](NS(=O)(=O)c1ccc2c(c1)oc1ccc(-c3ccc4oc5ccccc5c4c3)cc12)C(=O)O` [Compound 195, (S)-2-(2,2′-bidibenzo[b,d]furan-7-sulfonamido)-3-methylbutanoic acid] came in with an IC50 of 7.3 nM.

As to `CC(C)[C@@H](NS(=O)(=O)c1ccc2oc3cc(-c4cnn(Cc5ccccc5)c4)ccc3c2c1)C(=O)O` [Compound 175, (R)-2-(7-(1-benzyl-1H-pyrazol-4-yl)dibenzo[b,d]furan-2-sulfonamido)-3-methylbutanoic acid], the IC50 amounted to 12 nM. Next, `CC(C)[C@H](NS(=O)(=O)c1ccc2c(c1)oc1ccc(-c3nnn(C)n3)cc12)C(=O)O` [Compound 132, (S)-3-methyl-2-(8-(2-methyl-2H-tetrazol-5-yl)dibenzo[b,d]furan-3-sulfonamido)butanoic acid]: 2 nM. Under `CC(C)[C@H](NS(=O)(=O)c1ccc2c(c1)oc1cc(-c3cccs3)ccc12)C(=O)O` [Compound 81, (S)-3-methyl-2-(7-(thiophen-2-yl)dibenzo[b,d]furan-3-sulfonamido)butanoic acid] stands < 1.5 nM.

As for `CC(C)[C@H](NS(=O)(=O)c1ccc2c(c1)oc1cc(-c3ccc(Cl)s3)ccc12)C(=O)O` [Compound 84, (S)-2-(7-(5-chlorothiophen-2-yl)dibenzo[b,d]furan-3-sulfonamido)-3-methylbutanoic acid], the half-inhibitory concentration (IC50) was < 1.5 nM.

`CC(C)[C@H](NS(=O)(=O)c1ccc2c(c1)oc1ccc(-c3noc(C4CCOCC4)n3)cc12)C(=O)O` [Compound 260, (S)-3-methyl-2-(8-(5-(tetrahydro-2H-pyran-4-yl)-1,2,4-oxadiazol-3-yl)dibenzo[b,d]furan-3-sulfonamido)butanoic acid] showed an IC50 of 1.7 nM. With `CC(C)NC(=N)c1ccc2oc3cc(S(=O)(=O)N[C@H](C(=O)O)C(C)C)ccc3c2c1` [Compound 76, (S)-2-(8-(N-isopropylcarbamimidoyl)dibenzo[b,d]furan-3-sulfonamido)-3-methylbutanoic acid], the IC50 amounted to 18 nM. Next, `CC(C)(NS(=O)(=O)c1ccc2oc3cc(-c4noc(C(C)(C)C)n4)ccc3c2c1)C(=O)O` [Compound 277, 2-(7-(5-tert-butyl-1,2,4-oxadiazol-3-yl)dibenzo[b,d]furan-2-sulfonamido)-2-methylpropanoic acid]: 130 nM. Next, `CC(C)[C@@H](NS(=O)(=O)c1ccc2c(c1)oc1ccc(-c3ccc4c(c3)C(C)(C)OC(=O)N4)cc12)C(=O)O` [Compound 1, (R)-2-(8-(4,4-dimethyl-2-oxo-2,4-dihydro-1H-benzo[d][1,3]oxazin-6-yl)dibenzo[b,d]furan-3-sulfonamido)-3-methylbutanoic acid]: 11 nM; `CC(C)Cn1cc(-c2ccc3oc4cc(S(=O)(=O)N[C@H](C(=O)O)C(C)C)ccc4c3c2)cn1` [Compound 159, (S)-2-(8-(1-isobutyl-1H-pyrazol-4-yl)dibenzo[b,d]furan-3-sulfonamido)-3-methylbutanoic acid]: 6.2 nM; `CCC(C)Cn1cc(-c2ccc3c(c2)oc2ccc(S(=O)(=O)N[C@@H](C(=O)O)C(C)C)cc23)cn1` (stereo partly drawn) [Compound 170, (2R)-3-methyl-2-(7-(1-(2-methylbutyl)-1H-pyrazol-4-yl)dibenzo[b,d]furan-2-sulfonamido)butanoic acid]: 5.2 nM. Take `CCC(C)Cn1cc(-c2ccc3oc4cc(S(=O)(=O)N[C@H](C(=O)O)C(C)C)ccc4c3c2)cn1` (stereo partly drawn) [Compound 157, (2S)-3-methyl-2-(8-(1-(2-methylbutyl)-1H-pyrazol-4-yl)dibenzo[b,d]furan-3-sulfonamido)butanoic acid]: the IC50 was 15 nM. Under `CCc1ccc(-c2ccc3c(c2)oc2ccc(S(=O)(=O)N[C@H](C(=O)O)C(C)C)cc23)s1` [Compound 242, (S)-2-(7-(5-ethylthiophen-2-yl)dibenzo[b,d]furan-2-sulfonamido)-3-methylbutanoic acid] stands 8.4 nM; under `CC(C)Cc1nc(-c2ccc3c(c2)oc2ccc(S(=O)(=O)N[C@@H](C(=O)O)C(C)C)cc23)no1` [Compound 149, (R)-2-(7-(5-isobutyl-1,2,4-oxadiazol-3-yl)dibenzo[b,d]furan-2-sulfonamido)-3-methylbutanoic acid], 5.3 nM.

These data come from US20100227859A1, “TRICYCLIC COMPOUNDS AS MATRIX METALLOPROTEINASE INHIBITORS” (priority 2007, published 2010).
